Assay results reported in patent US20090093448A1, “19-NOR-PROGESTERONE FOR CONTRACEPTION” (GRUNENTHAL GMBH, priority 2007, published 2009).
Structures can show the parent of a compound that is named as a salt.

How the values were obtained:
[1] = molecular target: T1, human progesterone receptor (Homo sapiens, UniProt P06401); test: Relative binding affinity for the human progesterone receptor; conditions: for Relative binding affinity to progesterone receptor: progesterone as reference = 100
T1 sequence (P06401 1-933): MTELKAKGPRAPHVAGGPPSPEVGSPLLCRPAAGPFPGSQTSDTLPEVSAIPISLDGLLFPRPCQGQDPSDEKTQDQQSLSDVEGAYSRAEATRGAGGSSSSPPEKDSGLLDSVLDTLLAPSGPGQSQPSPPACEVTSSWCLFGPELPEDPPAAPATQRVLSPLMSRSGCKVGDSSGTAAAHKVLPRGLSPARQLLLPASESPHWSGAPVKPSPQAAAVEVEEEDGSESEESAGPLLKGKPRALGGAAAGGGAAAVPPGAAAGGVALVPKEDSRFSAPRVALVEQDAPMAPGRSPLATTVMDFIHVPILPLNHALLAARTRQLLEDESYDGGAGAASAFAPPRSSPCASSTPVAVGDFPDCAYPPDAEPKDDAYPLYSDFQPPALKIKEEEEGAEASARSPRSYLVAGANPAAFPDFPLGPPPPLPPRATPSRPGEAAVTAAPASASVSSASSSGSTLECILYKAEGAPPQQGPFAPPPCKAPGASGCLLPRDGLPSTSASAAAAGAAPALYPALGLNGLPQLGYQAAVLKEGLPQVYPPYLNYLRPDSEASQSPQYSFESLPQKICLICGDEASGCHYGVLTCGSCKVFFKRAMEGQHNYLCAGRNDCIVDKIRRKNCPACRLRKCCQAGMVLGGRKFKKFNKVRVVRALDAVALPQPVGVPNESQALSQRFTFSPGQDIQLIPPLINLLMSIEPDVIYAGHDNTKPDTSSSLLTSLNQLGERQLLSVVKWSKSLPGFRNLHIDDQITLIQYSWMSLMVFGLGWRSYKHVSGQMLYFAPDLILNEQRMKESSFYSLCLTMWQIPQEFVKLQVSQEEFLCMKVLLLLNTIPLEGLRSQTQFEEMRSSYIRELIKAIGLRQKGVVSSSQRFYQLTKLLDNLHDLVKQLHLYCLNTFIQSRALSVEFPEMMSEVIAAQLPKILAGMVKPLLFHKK

endometrium = test: McPhail test (progestational proliferation of the endometrium); format: in vivo, rabbits; conditions: for Mean McPhail Score (max. 4.0): estrone-primed immature female rabbits, five daily doses
Description: Trimegestone sulfate was tested in the McPhail test, which is a test for progesterone and like substances. Immature female rabbits are treated with 150 IU of estrone over a period of 6 days. The test material is then given in five daily subcutaneous doses. Progestational proliferation of the endometrium is noted and the results estimated according to a scale from 0 to 4.0.

| Relative binding affinity to progesterone receptor [1] | relative affinity for the progesterone receptor ([1]; % of the affinity of natural progesterone) [%] | SMILES | Mean McPhail Score (max. 4.0) (endometrium; 0.1 mg/kg/day s.c.) | Mean McPhail Score (max. 4.0) (endometrium; 1.0 mg/kg/day s.c.) | Mean McPhail Score (max. 4.0) (endometrium; 0.0001 mg/kg/day s.c.) | Mean McPhail Score (max. 4.0) (endometrium; 0.001 mg/kg/day s.c.) | Mean McPhail Score (max. 4.0) (endometrium; 0.01 mg/kg/day s.c.) | Mean McPhail Score (max. 4.0) (endometrium; 10.0 mg/kg/day s.c.) | endometrium transforming effects in the McPhail test (endometrium; s.c., 0.0001 to 10.0 mg/kg/day, result in words) |
| --- | --- | --- | --- | --- | --- | --- | --- | --- | --- |
| 64 | – | CC(O)C(=O)C1(C)CCC2C3CCC4=CC(=O)CC(O)C4=C3CCC21C (stereo not drawn) [1β-OH trimegestone, 1β-hydroxytrimegestone, reference compound] | – | – | – | – | – | – | – |
| 12 | – | CC(O)C(=O)C1(C)CCC2C3CC(O)C4=CC(=O)CCC4=C3CCC21C (stereo not drawn) [6β-OH trimegestone, 6β-hydroxytrimegestone, reference compound] | – | – | – | – | – | – | – |
| – | – | CC(=O)[C@H]1CC[C@H]2[C@@H]3CCC4=CC(=O)CC[C@]4(C)[C@H]3CC[C@]12C [Progesterone] | 2.25 | 3.75 | – | – | – | – | – |
| 40 | 40 | C[C@H](OS(=O)(=O)O)C(=O)[C@@]1(C)CCC2C3CCC4=CC(=O)CCC4=C3CC[C@@]21C (stereo partly shown) [Trimegestone sulfate, Trimegestone sulfate, pyridinium salt] | 3.31 | 2.93 | 0.75 | 0.88 | 2.1 | 3.68 | dose-dependent potent endometrium transforming effects |
